Laboratory results published in article PMC9820738, “Spectrofluorimetric and Computational Investigation of New Phthalimide Derivatives towards Human Neutrophil Elastase Inhibition and Antiproliferative Activity” (International Journal of Molecular Sciences, 2022).
Where two headings read alike, the source gives them in different places.

Key:
[1] = biological target: T1, human neutrophil elastase (HNE) (Homo sapiens, UniProt P08246); assay: Fluorometric human neutrophil elastase (HNE) inhibition assay, MOSuc-AAPV-AMC substrate; format: biochemical; details: HNE 20 mU/mL, 25 µM substrate, 0.1 M HEPES pH 7.5, 25 °C, triplicate; read-out: IC50 ± SD, elastase inhibitory activity
T1 sequence (P08246 30-267): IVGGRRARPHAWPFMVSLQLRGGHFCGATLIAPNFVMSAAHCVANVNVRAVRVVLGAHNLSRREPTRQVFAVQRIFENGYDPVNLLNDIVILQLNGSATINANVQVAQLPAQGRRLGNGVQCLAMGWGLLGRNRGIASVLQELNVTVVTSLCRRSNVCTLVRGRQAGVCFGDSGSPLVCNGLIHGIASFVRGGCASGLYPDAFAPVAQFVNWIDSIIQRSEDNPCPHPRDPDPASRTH
Protocol: Fluorometric assay for human neutrophil elastase (HNE) inhibition was performed according to the previously presented method with some modifications, using N-methoxysuccinyl-Ala-Ala-Pro-Val-7-amido-4-methyl-coumarin (MOSuc-AAPV-AMC, Calbiochem) as substrate. […] The reaction was carried out in assay buffer containing 0.1 M HEPES (pH 7.5). Briefly, different concentration of tested compounds was incubated with 20 mU/mL of HNE (Bradford) in 25 °C. The reaction was started by addition of 25 µM elastase substrate to final reaction volume 100 µL and monitored for 30 min at 25 °C on a microplate reader (FP-8500 Spectrofluorometer, JASCO, USA) with excitation and emission wavelengths of 380 nm and 440 nm, respectively. By computing the log of inhibitors concentrations versus the percentage of activity, the IC50 values were determined by non-linear regression analysis. Assays were performed in triplicate and data presented as the mean and the standard deviation. Ursolic acid was used as the reference compound.

[2] = test system: BALB/3T3 normal mouse fibroblast cells; assay: In vitro cytotoxicity on normal fibroblasts, BALB/3T3; format: cell-based; details: BALB/3T3 normal mouse fibroblasts; read-out: IC50 ± SD, antiproliferative activity
Protocol: (§1) Cell preparation, in vitro antiproliferative assay, MTT and SRB cytotoxic tests were performed according to literature.

[3] = test system: MDA-MB-231 human breast adenocarcinoma cells; assay: In vitro antiproliferative assay, MDA-MB-231; format: cell-based; details: for IC50: MDA-MB-231, read-out: IC50 ± SD, antiproliferative activity; for SI BALB/3T3/ MDA-MB-231: IC50 in normal cell line / IC50 in cancer cell line
Protocol: as §1

[4] = test system: A549 lung carcinoma cells; assay: In vitro antiproliferative assay, A549; format: cell-based, human; details: for IC50: A549, read-out: IC50 ± SD, antiproliferative activity; for SI BALB/3T3/ A549: IC50 in normal cell line / IC50 in cancer cell line
Protocol: as §1

[5] = test system: UMUC-3 human bladder transitional cell carcinoma cells; assay: In vitro antiproliferative assay, UMUC-3; format: cell-based; details: for IC50: UMUC-3, read-out: IC50 ± SD, antiproliferative activity; for SI BALB/3T3/ UMUC-3: IC50 in normal cell line / IC50 in cancer cell line
Protocol: as §1

[6] = test system: MV4-11 human biphenotypic B myelomonocytic leukemia cells; assay: In vitro antiproliferative assay, MV4-11; format: cell-based; details: for IC50: MV4-11, read-out: IC50 ± SD, antiproliferative activity; for SI BALB/3T3/ MV4-11: IC50 in normal cell line / IC50 in cancer cell line
Protocol: as §1

[7] = biological target: T1, human neutrophil elastase (HNE); assay: Kinetic analysis of the inhibition of elastase (Lineweaver–Burk, secondary plots); format: biochemical
Protocol: Kinetic studies were conducted in the presence of different concentrations of substrate (5, 25, 50 and 100 µM) and test compound (in the range of 0–10 µM). The reaction conditions were the same as in the HNE inhibition assay and the reaction was monitored for 10 min at 25 °C with the same Ex an Em wavelengths. By Lineweaver–Burk plots, kinetic values such as Michaelis–Menten constants and maximum velocity were determined. Next, two inhibition constants for inhibitor binding with free enzyme or enzyme–substrate complex (Ki and Kis) were obtained by plotting the secondary plot of the slopes of the determined straight lines or vertical intercept versus inhibitor concentration.

[8] = Spontaneous hydrolysis (chemical stability) in phosphate buffer, spectrophotometric; format: physicochemical; details: 0.05 M phosphate buffer pH 7.3, 25 °C, λ 305 nm
Protocol: Spontaneous compound hydrolysis studies were performed following the literature procedure. The kinetics hydrolysis of the compounds was evaluated at 25 °C in 0.05 M phosphate buffer, pH 7.3, by measuring changes in absorbance spectra during incubation using a T60U spectrophotometer (PG Instruments). The absorbance (At) at characteristic absorption maxima for each compound was measured at 10 min intervals until there was no further decrease in absorbance (Aꝏ). Using these measurements, semilogarithmic plots of the dependence of log(At–Aꝏ) on time were prepared, and k’ values were determined from the slope of these plots according to the first order reaction kinetics. Half-conversion times were calculated using equation: t1/2 = 0.693/k’.

Row | IC50 [1] | IC50 ([3]; Homo sapiens) | IC50 ([4]; Homo sapiens) | IC50 ([5]; Homo sapiens, UMUC3) | IC50 ([6]; Homo sapiens) | melting point | Inhibition Type ([7]; Lineweaver–Burk and Dixon analysis) | Ki ([7]; inhibitor binding with free enzyme, secondary plot) | k, rate constant of spontaneous hydrolysis [8] | half-life ([8]; read-out: t1/2, half-life for the spontaneous hydrolysis) | Structure (SMILES) | IC50 [2] | SI BALB/3T3/ MDA-MB-231 [3] | SI BALB/3T3/ A549 [4] | SI BALB/3T3/ UMUC-3 [5] | SI BALB/3T3/ MV4-11 [6] | IC50 [3] | IC50 [4] | IC50 [5] | IC50 [6]
1 | 29.4 ± 3.13 µM | 110 ± 24.5 µM | 50.7 ± 3.32 µM | 82.3 ± 2.18 µM | 59.6 ± 4.63 µM | – | – | – | – | – | O=C1c2ccccc2C(=O)N1CCc1csc(Nc2ccc(F)cc2)n1 [Compound 4a, 2-(2-(2-(4-Fluorophenylamino)thiazol-4-yl)ethyl)isoindoline-1,3-dione] | 74.2 ± 12.2 µM | – | – | – | – | – | – | – | –
2 | 46.5 ± 4.85 µM | 86.5 ± 10.7 µM | 18.1 ± 0.94 µM | 61.7 ± 1.56 µM | 12.2 ± 4.56 µM | – | – | – | – | – | O=C1c2ccccc2C(=O)N1CCc1csc(Nc2ccc(Cl)cc2)n1 [Compound 4b, 2-(2-(2-(4-Chlorophenylamino)thiazol-4-yl)ethyl)isoindoline-1,3-dione] | 66.2 ± 4.17 µM | – | – | – | – | – | – | – | –
3 | 13 µM | 77.5 ± 13.7 µM | 14 ± 1.56 µM | 75.2 ± 6.71 µM | 46.6 ± 25.4 µM | 170 to 172 °C | mixed type I inhibition | 4.54 µM | 0.018 min⁻¹ | 38.5 min | O=C1c2ccccc2C(=O)N1CCc1csc(Nc2ccc(C(F)(F)F)cc2)n1 [Compound 4c, 2-(2-(2-(4-(Trifluoromethyl)phenylamino)thiazol-4-yl)ethyl)isoindoline-1,3-dione] | 84.9 ± 18.2 µM | 1.10 | 6.07 | 1.13 | 1.82 | – | – | – | –
4 | 49.9 ± 0.98 µM | 86.4 ± 12.2 µM | 25.6 ± 3.63 µM | 66.5 ± 9.8 µM | 13.2 ± 4.77 µM | – | – | – | – | – | Cc1cc(C)cc(Nc2nc(CCN3C(=O)c4ccccc4C3=O)cs2)c1 [Compound 4f, 2-(2-(2-(3,5-Dimethylphenylamino)thiazol-4-yl)ethyl)isoindoline-1,3-dione] | 101 ± 12.2 µM | – | – | – | – | – | – | – | –
5 | 64.9 ± 7.75 µM | 9.66 ± 1.4 µM | – | 19.8 ± 1.4 µM | 83.3 ± 26.6 µM | > 260 °C | – | – | – | – | NS(=O)(=O)c1ccc(Nc2nc(CCN3C(=O)c4ccccc4C3=O)cs2)cc1 [Compound 4g, 4-(4-(2-(1,3-Dioxoisoindolin-2-yl)ethyl)thiazol-2-ylamino)benzenesulfonamide] | 14.3 ± 2.1 µM | 1.49 | – | 0.72 | 0.17 | – | – | – | –
6 | 25.6 ± 1.78 µM | 87.7 ± 22 µM | 62.9 ± 5.75 µM | 74.1 ± 12 µM | 44.5 ± 20.2 µM | – | – | – | – | – | CC(=O)c1ccc(Nc2nc(CCN3C(=O)c4ccccc4C3=O)cs2)cc1 [Compound 4i, 2-(2-(2-(4-Acetylphenylamino)thiazol-4-yl)ethyl)isoindoline-1,3-dione] | 99 ± 21.2 µM | – | – | – | – | – | – | – | –

Further lines, the compound ahead of its results:

Row | Structure (SMILES) | IC50 [1] | IC50 ([3]; Homo sapiens) | IC50 ([4]; Homo sapiens) | IC50 ([5]; Homo sapiens, UMUC3) | IC50 ([6]; Homo sapiens) | melting point | Inhibition Type ([7]; Lineweaver–Burk and Dixon analysis) | Ki ([7]; inhibitor binding with free enzyme, secondary plot) | k, rate constant of spontaneous hydrolysis [8] | half-life ([8]; read-out: t1/2, half-life for the spontaneous hydrolysis) | IC50 [2] | SI BALB/3T3/ MDA-MB-231 [3] | SI BALB/3T3/ A549 [4] | SI BALB/3T3/ UMUC-3 [5] | SI BALB/3T3/ MV4-11 [6] | IC50 [3] | IC50 [4] | IC50 [5] | IC50 [6]
7 | COc1cc(Nc2nc(CCN3C(=O)c4ccccc4C3=O)cs2)cc(OC)c1OC [Compound 4d, 2-(2-(2-(3,4,5-Trimethoxyphenylamino)thiazol-4-yl)ethyl)isoindoline-1,3-dione] | 22.9 ± 1.59 µM | 48.9 ± 13.2 µM | 23.7 ± 5.23 µM | 46.1 ± 7.28 µM | 8.21 ± 2.37 µM | – | – | – | – | – | 46.8 ± 2.05 µM | – | – | – | – | – | – | – | –
8 | O=C1c2ccccc2C(=O)N1CCc1csc(Nc2cccc3ccccc23)n1 [Compound 4e, 2-(2-(2-(Naphthalen-1-ylamino)thiazol-4-yl)ethyl)isoindoline-1,3-dione] | 15.6 ± 0.16 µM | 76.4 ± 11.1 µM | 41.1 ± 3.13 µM | 80 ± 16.2 µM | 33.2 ± 12 µM | 161 to 162 °C | – | – | – | – | 103 ± 30.7 µM | 1.34 | 2.50 | 1.28 | 3.09 | – | – | – | –
9 | O=C1c2ccccc2C(=O)N1CCc1csc(Nc2c(Cl)cc(Cl)cc2Cl)n1 [Compound 4h, 2-(2-(2-(2,4,6-Trichlorophenylamino)thiazol-4-yl)ethyl)isoindoline-1,3-dione] | 16.6 ± 2.06 µM | – | 57.1 ± 19.4 µM | 120 ± 36 µM | 48.5 ± 21.4 µM | 168 to 169 °C | – | – | – | – | – | – | – | – | – | – | – | – | –
10 | C[C@H]1[C@H](C)CC[C@]2(C(=O)O)CC[C@]3(C)C(=CC[C@@H]4[C@@]5(C)CC[C@H](O)C(C)(C)[C@@H]5CC[C@]43C)[C@H]12 [Ursolic acid, reference compound] | 5.32 ± 0.68 µM | – | – | – | – | – | – | – | – | – | – | – | – | – | – | – | – | – | –
11 | N.N.[Cl][Pt][Cl] [cisplatin, reference compound] | – | – | – | – | – | – | – | – | – | – | 8.47 ± 1.96 µM | – | – | – | – | 15.6 ± 2 µM | 5.41 ± 0.6 µM | 1.73 ± 0.17 µM | 1.43 ± 0.4 µM
